Our source for the EC50 values is patent US20250136606A1, “MODULATORS OF TRPML, THEIR COMPOSITIONS AND METHODS OF USE” (Caraway Therapeutics, Inc., priority 2021, published 2025).

Like-named read-outs stand apart in the source and are kept apart here. Where only a bound is given, the exact number is not on record here.

Holding throughout (assay type): cell-based
The target in one assay is TRPML1 (Homo sapiens, UniProt Q9GZU1). Kind of assay: Fluorescent TRPML1 assay (Fluo4-AM calcium fluorescence in doxycycline-induced HEK-293 Trex cells). The gist of the method:
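First, expression of surface-targeted mutant human TRPML1 is induced in HEK-293 Trex cells with 0.5 ug/mL doxycycline the day before. Next, cells take up 1 micromolar Fluo4-AM in Ringer's with 0.1% Pluronic. Finally, they are added to compounds (6 nanomolar–20 micromolar final) in 10 mM calcium Ringer's and fluorescence is read.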

For a further assay, the target named is T1, TRPML2 (Homo sapiens, UniProt Q8IZK6).
T1 construct: expressed in transfected cells
T1 sequence (Q8IZK6 1-566): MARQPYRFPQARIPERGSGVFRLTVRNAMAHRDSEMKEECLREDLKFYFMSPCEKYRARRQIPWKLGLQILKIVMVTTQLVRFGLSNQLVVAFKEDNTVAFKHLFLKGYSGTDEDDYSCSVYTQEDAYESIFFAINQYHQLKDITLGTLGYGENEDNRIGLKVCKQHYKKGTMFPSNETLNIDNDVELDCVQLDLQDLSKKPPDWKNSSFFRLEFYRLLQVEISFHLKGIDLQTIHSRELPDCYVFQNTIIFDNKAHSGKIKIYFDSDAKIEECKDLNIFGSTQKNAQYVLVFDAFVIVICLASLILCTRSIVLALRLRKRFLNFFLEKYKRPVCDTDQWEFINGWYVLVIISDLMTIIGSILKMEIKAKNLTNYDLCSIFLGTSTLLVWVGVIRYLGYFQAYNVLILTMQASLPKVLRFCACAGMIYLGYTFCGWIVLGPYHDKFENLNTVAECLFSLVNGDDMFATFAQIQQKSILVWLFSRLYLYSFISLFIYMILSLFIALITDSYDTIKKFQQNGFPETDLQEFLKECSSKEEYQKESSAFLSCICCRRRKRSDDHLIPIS
Kind of assay: Fluorescent TRPML2 assay (performed as for TRPML1, substituting the TRPML2 subtype). The gist of the method:
(§1)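 Compound series (final 6 nM-20 μM, half-log, triplicate) were added to Fluo4-AM-loaded HEK-293 Trex cells in 10 mM calcium Ringer's, expressing the human TRPML subtype after doxycycline 0.5 ug/mL induction. Percent activity versus positive/negative controls from 480/540 nm fluorescence; EC50 by non-linear regression.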

The target in the next assay is T2, TRPML3 (Homo sapiens, UniProt Q8TDD5).
T2 construct: expressed in transfected cells
T2 sequence (Q8TDD5 1-553): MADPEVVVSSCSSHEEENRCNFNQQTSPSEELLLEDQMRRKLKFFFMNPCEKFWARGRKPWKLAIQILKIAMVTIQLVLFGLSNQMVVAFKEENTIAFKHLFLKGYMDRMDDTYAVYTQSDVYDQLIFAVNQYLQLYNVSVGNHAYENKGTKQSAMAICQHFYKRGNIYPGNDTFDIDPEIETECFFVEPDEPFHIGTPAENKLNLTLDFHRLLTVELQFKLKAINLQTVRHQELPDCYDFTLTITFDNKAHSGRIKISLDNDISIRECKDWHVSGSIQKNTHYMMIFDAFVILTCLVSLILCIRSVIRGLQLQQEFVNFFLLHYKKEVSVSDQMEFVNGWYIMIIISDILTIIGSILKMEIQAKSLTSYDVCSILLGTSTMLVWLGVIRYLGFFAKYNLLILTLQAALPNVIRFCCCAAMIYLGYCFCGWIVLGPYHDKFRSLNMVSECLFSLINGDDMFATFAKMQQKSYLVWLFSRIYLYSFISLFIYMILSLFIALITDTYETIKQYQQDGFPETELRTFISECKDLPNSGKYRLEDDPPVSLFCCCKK
Put plainly: Fluorescent TRPML3 assay (performed as for TRPML1, substituting the TRPML3 subtype). The gist of the method:
as §1

TRPML1, sequence (Q9GZU1 whole entry L15A/L16A/L577A/L578A, form open): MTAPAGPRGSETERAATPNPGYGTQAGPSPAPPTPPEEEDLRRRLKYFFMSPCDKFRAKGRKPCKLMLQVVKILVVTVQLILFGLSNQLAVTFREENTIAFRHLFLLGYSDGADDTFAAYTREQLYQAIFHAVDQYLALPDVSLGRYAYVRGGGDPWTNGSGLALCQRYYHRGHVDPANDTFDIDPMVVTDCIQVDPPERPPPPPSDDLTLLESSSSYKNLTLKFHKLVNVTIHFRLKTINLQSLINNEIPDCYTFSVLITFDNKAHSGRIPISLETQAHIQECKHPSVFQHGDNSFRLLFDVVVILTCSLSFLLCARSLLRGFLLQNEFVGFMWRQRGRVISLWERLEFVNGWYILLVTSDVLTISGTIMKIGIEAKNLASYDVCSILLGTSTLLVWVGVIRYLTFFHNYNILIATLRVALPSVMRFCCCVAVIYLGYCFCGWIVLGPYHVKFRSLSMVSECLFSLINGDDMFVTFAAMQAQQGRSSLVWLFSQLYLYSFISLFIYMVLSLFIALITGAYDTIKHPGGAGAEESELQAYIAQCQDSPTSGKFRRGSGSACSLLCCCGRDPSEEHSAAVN

Consider `C[C@@H]1CN(c2ncnc3c2c(C2CC2)cn3-c2cncc(C(F)(F)F)c2)[C@@H](C)CN1C(=O)OC(C)(C)C` [Compound 167, tert-butyl (2R,5S)-4-(5-cyclopropyl-7-(5-(trifluoromethyl)pyridin-3-yl)-7H-pyrrolo[2,3-d]pyrimidin-4-yl)-2,5-dimethylpiperazine-1-carboxylate], for which the values for the EC50 at TRPML1 (fluorescent calcium assay), at TRPML2 (fluorescent calcium assay) and on TRPML3 (fluorescent calcium assay) were 100 to 500 nM, 500 to 2000 nM and under 100 nM, respectively.

`C[C@H]1CN(C(=O)OC(C)(C)C)CCN1c1ncnc2c1c(C1CC1)cn2-c1cc(C#N)n(C)n1` [Compound 413, tert-butyl (S)-4-(7-(5-cyano-1-methyl-1H-pyrazol-3-yl)-5-cyclopropyl-7H-pyrrolo[2,3-d]pyrimidin-4-yl)-3-methylpiperazine-1-carboxylate]: the values for the 50% effective concentration (EC50) on TRPML1 (fluorescent calcium assay), at TRPML2 (fluorescent calcium assay) and at TRPML3 (fluorescent calcium assay) were 100 to 500 nM, 100 to 500 nM and under 100 nM, respectively.

Consider `Cc1cn(-c2cccc(Cl)c2)c2ncnc(N3CCN(C(=O)OC(C)(C)C)C[C@@H]3C)c12` [Compound 688, tert-butyl (S)-4-(7-(3-chlorophenyl)-5-methyl-7H-pyrrolo[2,3-d]pyrimidin-4-yl)-3-methylpiperazine-1-carboxylate], for which the EC50 at TRPML1, at TRPML2 and at TRPML3 was under 100 nM throughout.

Regarding `Cc1cn(-c2ccccn2)c2ncnc(N3CCN(C(=O)OC(C)(C)C)C[C@@H]3C)c12` [Compound 690, tert-butyl (S)-3-methyl-4-(5-methyl-7-(pyridin-2-yl)-7H-pyrrolo[2,3-d]pyrimidin-4-yl)piperazine-1-carboxylate], the values for the EC50 at TRPML1, at TRPML2 and at TRPML3 were under 100 nM, 500 to 2000 nM and under 100 nM, respectively.

Turning to `C[C@H]1CN(c2ncnc3c2c(C2CC2)cn3-c2cc(F)cc(F)c2)CCN1C(=O)OC(C)(C)C` [Compound 188, tert-Butyl (S)-4-(5-cyclopropyl-7-(3,5-difluorophenyl)-7H-pyrrolo[2,3-d]pyrimidin-4-yl)-2-methylpiperazine-1-carboxylate], the EC50 was 100 to 500 nM at TRPML1 (fluorescent calcium assay), 500 to 2000 nM on TRPML2 (fluorescent calcium assay) and 100 to 500 nM at TRPML3 (fluorescent calcium assay).

On to `C[C@H]1CN(C(=O)OC(C)(C)C)CCN1c1ncnc2c1c(N1CCC1)cn2-c1cccc(F)c1` [Compound 636, tert-butyl (S)-4-(5-(azetidin-1-yl)-7-(3-fluorophenyl)-7H-pyrrolo[2,3-d]pyrimidin-4-yl)-3-methylpiperazine-1-carboxylate], for which the 50% effective concentration (EC50) at TRPML1, on TRPML2 and on TRPML3 was under 100 nM each time.

For the compound `C[C@@H]1CN(C(=O)OC(C)(C)C)CCN1c1ncnc2c1c(C1CC1)cn2-c1cccc(OC(F)(F)F)c1` [Compound 195, tert-butyl (R)-4-(5-cyclopropyl-7-(3-(trifluoromethoxy)phenyl)-7H-pyrrolo[2,3-d]pyrimidin-4-yl)-3-methylpiperazine-1-carboxylate], the 50% effective concentration (EC50) on TRPML1 (fluorescent calcium assay) was 100 to 500 nM; at TRPML2 (fluorescent calcium assay), 100 to 500 nM; on TRPML3 (fluorescent calcium assay), under 100 nM.

Consider `Cc1cn(-c2ccccn2)c2ncnc(N3C[C@@H](C)N(C(=O)OC(C)(C)C)C[C@@H]3C)c12` [Compound 673, tert-butyl (2R,5S)-2,5-dimethyl-4-(5-methyl-7-(pyridin-2-yl)-7H-pyrrolo[2,3-d]pyrimidin-4-yl)piperazine-1-carboxylate], for which the EC50 at TRPML1 is 100 to 500 nM; at TRPML2 it was over 2000 nM; on TRPML3, 100 to 500 nM.

As to `C[C@@H]1CN(c2ncnc3c2c(C2CC2)cn3-c2cc(Cl)ccc2F)CCN1C(=O)OC(C)(C)C` [Compound 224, tert-butyl (R)-4-(7-(5-chloro-2-fluorophenyl)-5-cyclopropyl-7H-pyrrolo[2,3-d]pyrimidin-4-yl)-2-methylpiperazine-1-carboxylate], the EC50 at TRPML1 (fluorescent calcium assay) is under 100 nM; on TRPML2 (fluorescent calcium assay), 100 to 500 nM; on TRPML3 (fluorescent calcium assay) it was under 100 nM.

Take `Cc1ccc(Cl)cc1-n1cc(-c2ccccn2)c2c(N3CCN(C(=O)OC(C)(C)C)CC3C)ncnc21` (stereo not drawn) [Compound 159, tert-butyl 4-(7-(5-chloro-2-methylphenyl)-5-(pyridin-2-yl)-7H-pyrrolo[2,3-d]pyrimidin-4-yl)-3-methylpiperazine-1-carboxylate]: the EC50 on TRPML1 (fluorescent calcium assay), on TRPML2 (fluorescent calcium assay) and at TRPML3 (fluorescent calcium assay) was 100 to 500 nM throughout.

For the compound `C[C@@H]1CN(c2ncnc3c2c(-c2cnccn2)cn3-c2cc(F)cc(Cl)c2)CCN1C(=O)OC(C)(C)C` [Compound 223, tert-butyl (R)-4-(7-(3-chloro-5-fluorophenyl)-5-(pyrazin-2-yl)-7H-pyrrolo[2,3-d]pyrimidin-4-yl)-2-methylpiperazine-1-carboxylate], the 50% effective concentration (EC50) on TRPML1 (fluorescent calcium assay) was 100 to 500 nM; at TRPML2 (fluorescent calcium assay), 500 to 2000 nM; at TRPML3 (fluorescent calcium assay), 100 to 500 nM.

For `C[C@H]1CN(C(=O)OC(C)(C)C)CCN1c1ncnc2c1c(-c1ccncn1)cn2-c1cccc(Cl)c1` [Compound 115, tert-butyl (S)-4-(7-(3-chlorophenyl)-5-(pyrimidin-4-yl)-7H-pyrrolo[2,3-d]pyrimidin-4-yl)-3-methylpiperazine-1-carboxylate], the values for the half-maximal effective concentration (EC50) on TRPML1 (fluorescent calcium assay), at TRPML2 (fluorescent calcium assay) and at TRPML3 (fluorescent calcium assay) were 100 to 500 nM, 500 to 2000 nM and 100 to 500 nM, respectively.

`C[C@@H]1CN(c2ncnc3c2c(C2CC2)cn3-c2cccc(F)c2)CCN1C(=O)OC(C)(C)C` [Compound 656, tert-butyl (R)-4-(5-cyclopropyl-7-(3-fluorophenyl)-7H-pyrrolo[2,3-d]pyrimidin-4-yl)-2-methylpiperazine-1-carboxylate]: the EC50 at TRPML1 was under 100 nM; at TRPML2, 100 to 500 nM; on TRPML3 it was under 100 nM.

For the compound `C[C@H]1CN(C(=O)OC(C)(C)C)CCN1c1ncnc2c1c(-c1ccccn1)cn2-c1cccc(Cl)c1` [Compound 119, tert-butyl (S)-4-(7-(3-chlorophenyl)-5-(pyridin-2-yl)-7H-pyrrolo[2,3-d]pyrimidin-4-yl)-3-methylpiperazine-1-carboxylate], the EC50 on TRPML1 (fluorescent calcium assay) is under 100 nM; on TRPML2 (fluorescent calcium assay), 100 to 500 nM; on TRPML3 (fluorescent calcium assay), under 100 nM.

For the compound `C[C@@H]1COCCN1c1cn(-c2cccc(C#N)c2)c2ncnc(N3CCN(C(=O)OC(C)(C)C)C[C@@H]3C)c12` [Compound 369, tert-butyl (S)-4-(7-(3-cyanophenyl)-5-((R)-3-methylmorpholino)-7H-pyrrolo[2,3-d]pyrimidin-4-yl)-3-methylpiperazine-1-carboxylate], the half-maximal effective concentration (EC50) on TRPML1 (fluorescent calcium assay) was 100 to 500 nM; at TRPML2 (fluorescent calcium assay), 500 to 2000 nM; at TRPML3 (fluorescent calcium assay), 100 to 500 nM.

`CCN(CC)c1cn(-c2cccc(Cl)c2)c2ncnc(N3CCN(C(=O)OC(C)(C)C)[C@H](C)C3)c12` [Compound 375, tert-butyl (R)-4-(7-(3-chlorophenyl)-5-(diethylamino)-7H-pyrrolo[2,3-d]pyrimidin-4-yl)-2-methylpiperazine-1-carboxylate]: the EC50 on TRPML1 (fluorescent calcium assay) was under 100 nM; on TRPML2 (fluorescent calcium assay), 100 to 500 nM; on TRPML3 (fluorescent calcium assay), under 100 nM.

On to `C[C@H]1CN(C(=O)OC(C)(C)C)CCN1c1ncnc2c1c(C1CC1)cn2-c1cc(C#N)cc(OC(F)(F)F)c1` [Compound 303, tert-butyl (S)-4-(7-(3-cyano-5-(trifluoromethoxy)phenyl)-5-cyclopropyl-7H-pyrrolo[2,3-d]pyrimidin-4-yl)-3-methylpiperazine-1-carboxylate], for which the results for the EC50 on TRPML1 (fluorescent calcium assay), at TRPML2 (fluorescent calcium assay) and on TRPML3 (fluorescent calcium assay) were 100 to 500 nM, 500 to 2000 nM and 100 to 500 nM, respectively.

On to `CCc1cn(-c2cc(F)ccn2)c2ncnc(N3C[C@@H](C)N(C(=O)OC(C)(C)C)C[C@@H]3C)c12` [Compound 697, tert-butyl (2R,5S)-4-(5-ethyl-7-(4-fluoropyridin-2-yl)-7H-pyrrolo[2,3-d]pyrimidin-4-yl)-2,5-dimethylpiperazine-1-carboxylate], for which the concentration for a half-maximal effect (EC50) at TRPML1, on TRPML2 and at TRPML3 was under 100 nM in each case.

`CC(C)(C)OC(=O)N1CCN(c2ncnc3c2c(C2CC2)cn3-c2cc(F)cc(F)c2)C[C@H]1CF` (single isomer, unassigned) [Compound 269]: the EC50 was 100 to 500 nM at TRPML1 (fluorescent calcium assay), 500 to 2000 nM at TRPML2 (fluorescent calcium assay) and under 100 nM on TRPML3 (fluorescent calcium assay).

One may read the EC50 as the midpoint of the concentration-response curve.
